Reference: article PMC10098062 (Molecular Plant Pathology, 2023)

Molecular target: SstF F299A (SFN-sensing transcription factor, LysR family) (Xanthomonas campestris, UniProt Q8PAP2, F299A)
Assay: biochemical

## C[S+]([O-])CCCCN=C=S (stereo not shown) [SFN, Sulforaphane]
  Kd: 143 µM
